Data reported in patent publication US20250353891A1 (MEDIMMUNE LIMITED, priority 2022, published 2025).
Where two headings read alike, the source gives them in different places. Starred links: 1 amine or outer side, 2 acyl side, 3 side chain; linkers in the order of their positions; H or OH if unused. Non-standard residues stand in square brackets, D forms with d. Residues, ends and D or L forms follow the SMILES beside them. Groups on a side chain read outwards from the residue. *: point of attachment. C20 diacid = O=C(O)CCCCCCCCCCCCCCCCCCC(=O)*; C18 diacid = O=C(O)CCCCCCCCCCCCCCCCC(=O)*; γGlu = O=C(O)[C@H](CCC(=O)[*:2])N[*:1]; αMeF = C[C@](N)(Cc1ccccc1)C(=O)O; AEEA = NCCOCCOCC(=O)O; Aib = CC(C)(N)C(=O)O

How the values were obtained:
[1] = biological target: human GLP-1 receptor (hGLP-1R) (Homo sapiens, UniProt P43220); test: cAMP production (HTRF) in CHO cells expressing hGLP-1R; type: cell-based; parameters: expressed in transfected cells
human GLP-1 receptor (hGLP-1R), sequence (P43220 24-463): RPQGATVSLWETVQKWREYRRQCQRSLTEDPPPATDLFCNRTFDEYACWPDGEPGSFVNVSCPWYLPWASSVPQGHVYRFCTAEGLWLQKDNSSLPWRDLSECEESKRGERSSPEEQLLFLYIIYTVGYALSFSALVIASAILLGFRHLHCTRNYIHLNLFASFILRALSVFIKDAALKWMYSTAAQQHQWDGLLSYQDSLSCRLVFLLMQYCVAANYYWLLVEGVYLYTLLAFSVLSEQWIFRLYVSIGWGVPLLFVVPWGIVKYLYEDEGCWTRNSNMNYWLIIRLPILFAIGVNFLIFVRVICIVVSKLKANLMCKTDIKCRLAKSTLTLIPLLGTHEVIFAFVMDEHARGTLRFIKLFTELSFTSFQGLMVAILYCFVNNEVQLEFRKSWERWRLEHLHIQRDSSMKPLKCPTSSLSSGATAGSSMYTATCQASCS
Method in brief: (§1)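 Cells were resuspended in assay buffer at batch-optimized density, typically 1×10^5 cells/mL for hGLP-1R and 2×10^5 cells/mL for hGCGR. After 30 min incubation at room temperature with compound, cAMP was measured by two-step HTRF. EC50 values came from 4-parameter logistic fits of % Delta F.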

[2] = biological target: human glucagon receptor (hGCGR) (Homo sapiens, UniProt P47871); test: cAMP production (HTRF) in CHO cells expressing hGCGR; type: cell-based; parameters: expressed in transfected cells; details: cAMP, CHO cells, 0.1% BSA, geometric mean
human glucagon receptor (hGCGR), sequence (P47871 26-477): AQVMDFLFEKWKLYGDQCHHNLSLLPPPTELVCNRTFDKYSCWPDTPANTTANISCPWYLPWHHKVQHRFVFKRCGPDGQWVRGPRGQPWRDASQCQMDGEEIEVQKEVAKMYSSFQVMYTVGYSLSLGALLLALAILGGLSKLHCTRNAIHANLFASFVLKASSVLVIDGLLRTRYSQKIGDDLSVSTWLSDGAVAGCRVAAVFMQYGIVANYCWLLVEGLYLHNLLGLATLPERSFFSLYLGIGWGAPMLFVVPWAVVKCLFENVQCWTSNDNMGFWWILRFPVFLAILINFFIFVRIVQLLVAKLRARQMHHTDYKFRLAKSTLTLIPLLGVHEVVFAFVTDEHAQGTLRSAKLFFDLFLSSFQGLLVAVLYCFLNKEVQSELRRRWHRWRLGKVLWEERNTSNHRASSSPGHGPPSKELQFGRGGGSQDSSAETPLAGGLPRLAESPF
Method in brief: as §1

[3] = % GLP-1R activity relative to GLP-1 / % GlucR activity relative to glucagon
[4] = cAMP, CHO cells, 0.1% BSA, geometric mean, read-out: hGLP-1R EC50

| Structure (SMILES) | % Relative Potency Ratio [1, 3] | EC50 [1, 4] | EC50 ([2]; read-out: hGluc-R EC50) | EC50 ([1]; hGLP-1R EC50 (pM)) | EC50 ([2]; hGluc-R EC50 (pM)) | % Relative Potency Ratio [1] |
| --- | --- | --- | --- | --- | --- | --- |
| CC[C@H](C)[C@H](NC(=O)[C@H](Cc1c[nH]c2ccccc12)NC(=O)[C@H](CCCCNC(=O)COCCOCCNC(=O)COCCOCCNC(=O)CC[C@H](NC(=O)CCCCCCCCCCCCCCCCC(=O)O)C(=O)O)NC(=O)[C@@H](NC(=O)[C@H](Cc1ccccc1)NC(=O)[C@H](CC(=O)O)NC(=O)[C@H](CCC(N)=O)NC(=O)[C@H](C)NC(=O)[C@H](C)NC(=O)[C@H](CCC(N)=O)NC(=O)[C@H](CO)NC(=O)[C@H](CC(=O)O)NC(=O)[C@H](CC(C)C)NC(=O)[C@](C)(Cc1ccccc1)NC(=O)[C@H](CCCCN)NC(=O)[C@H](CO)NC(=O)[C@@H](NC(=O)[C@H](CC(=O)O)NC(=O)[C@H](CO)NC(=O)[C@@H](NC(=O)[C@](C)(Cc1ccccc1)NC(=O)[C@H](CO)NC(=O)CNC(=O)[C@@H](NC(=O)C(C)(C)NC(=O)[C@@H](N)Cc1c[nH]cn1)[C@@H](C)CC)[C@@H](C)O)C(C)C)C(C)C)C(=O)N[C@@H](C)C(=O)N[C@@H](CC(N)=O)C(=O)N[C@H](C(N)=O)[C@@H](C)O [Peptide 358] (H-H[Aib]IGS[αMeF]TSDVSK[αMeF]LDSQAAQDFVK([AEEA-AEEA-γGlu-C18 diacid])WIANT-NH2; N-terminus assumed) |  |  |  | 74.9 pM | 16000 pM |  |
| CC[C@H](C)[C@H](NC(=O)[C@H](Cc1c[nH]c2ccccc12)NC(=O)[C@H](CCCCNC(=O)COCCOCCNC(=O)COCCOCCNC(=O)CC[C@H](NC(=O)CCCCCCCCCCCCCCCCC(=O)O)C(=O)O)NC(=O)[C@@H](NC(=O)[C@H](Cc1ccccc1)NC(=O)[C@H](CC(=O)O)NC(=O)[C@H](CCC(N)=O)NC(=O)[C@H](C)NC(=O)[C@H](C)NC(=O)[C@H](CCCNC(=N)N)NC(=O)[C@H](CO)NC(=O)[C@H](CC(=O)O)NC(=O)[C@H](CC(C)C)NC(=O)[C@](C)(Cc1ccccc1)NC(=O)[C@H](CCCCN)NC(=O)[C@H](CO)NC(=O)[C@@H](NC(=O)[C@H](CC(=O)O)NC(=O)[C@H](CO)NC(=O)[C@@H](NC(=O)[C@](C)(Cc1ccccc1)NC(=O)[C@H](CO)NC(=O)CNC(=O)[C@@H](NC(=O)C(C)(C)NC(=O)[C@@H](N)Cc1c[nH]cn1)[C@@H](C)CC)[C@@H](C)O)C(C)C)C(C)C)C(=O)N[C@@H](C)C(=O)N[C@@H](CC(N)=O)C(=O)N[C@H](C(N)=O)[C@@H](C)O [Peptide 359] (H-H[Aib]IGS[αMeF]TSDVSK[αMeF]LDSRAAQDFVK([AEEA-AEEA-γGlu-C18 diacid])WIANT-NH2) | 216.6 | 46.1 pM | 5050 pM |  |  |  |
| CC[C@H](C)[C@H](NC(=O)[C@H](Cc1c[nH]c2ccccc12)NC(=O)[C@H](CCCCNC(=O)COCCOCCNC(=O)COCCOCCNC(=O)CC[C@H](NC(=O)CCCCCCCCCCCCCCCCC(=O)O)C(=O)O)NC(=O)[C@@H](NC(=O)[C@H](Cc1ccccc1)NC(=O)[C@H](CC(=O)O)NC(=O)[C@H](CCC(N)=O)NC(=O)[C@H](C)NC(=O)C(C)(C)NC(=O)[C@H](CCCNC(=N)N)NC(=O)[C@H](CO)NC(=O)[C@H](CC(=O)O)NC(=O)[C@H](CC(C)C)NC(=O)[C@](C)(Cc1ccccc1)NC(=O)[C@H](CCCCN)NC(=O)[C@H](CO)NC(=O)[C@@H](NC(=O)[C@H](CC(=O)O)NC(=O)[C@H](CO)NC(=O)[C@@H](NC(=O)[C@](C)(Cc1ccccc1)NC(=O)[C@H](CO)NC(=O)CNC(=O)[C@H](Cc1c[nH]cn1)NC(=O)C(C)(C)NC(=O)[C@@H](N)Cc1c[nH]cn1)[C@@H](C)O)C(C)C)C(C)C)C(=O)N[C@@H](C)C(=O)N[C@@H](CC(N)=O)C(=O)N[C@H](C(N)=O)[C@@H](C)O [Peptide 365, H(Aib)HGS(αMePhe)TSDVSK(αMePhe)LDSR(Aib)AQDFVK(O2Oc-O2Oc-γE-C18diacid)24WIANT-amide] (H-H[Aib]HGS[αMeF]TSDVSK[αMeF]LDSR[Aib]AQDFVK([AEEA-AEEA-γGlu-C18 diacid])WIANT-NH2; N-terminus assumed) |  | 51.3 pM |  |  | 8.77 pM | 0.3 |

More lines, in order of falling EC50 [1, 4], values ahead:

| % Relative Potency Ratio [1, 3] | EC50 [1, 4] | EC50 ([2]; read-out: hGluc-R EC50) | Structure (SMILES) | EC50 ([1]; hGLP-1R EC50 (pM)) | EC50 ([2]; hGluc-R EC50 (pM)) | % Relative Potency Ratio [1] |
| --- | --- | --- | --- | --- | --- | --- |
| 3.1 | 186 pM | 290 pM | CC[C@H](C)[C@H](NC(=O)[C@H](Cc1c[nH]c2ccccc12)NC(=O)[C@H](CCCCNC(=O)COCCOCCNC(=O)COCCOCCNC(=O)CC[C@H](NC(=O)CCCCCCCCCCCCCCCCCCC(=O)O)C(=O)O)NC(=O)[C@@H](NC(=O)[C@H](Cc1ccccc1)NC(=O)[C@H](CC(=O)O)NC(=O)[C@H](CCC(N)=O)NC(=O)[C@H](C)NC(=O)C(C)(C)NC(=O)[C@H](CCCNC(=N)N)NC(=O)[C@H](CO)NC(=O)[C@H](CC(=O)O)NC(=O)[C@H](CC(C)C)NC(=O)[C@](C)(Cc1ccccc1)NC(=O)[C@H](CCCCN)NC(=O)[C@H](CO)NC(=O)[C@@H](NC(=O)[C@H](CC(=O)O)NC(=O)[C@H](CO)NC(=O)[C@@H](NC(=O)[C@](C)(Cc1ccccc1)NC(=O)[C@H](CO)NC(=O)CNC(=O)[C@H](Cc1c[nH]cn1)NC(=O)C(C)(C)NC(=O)[C@@H](N)Cc1c[nH]cn1)[C@@H](C)O)C(C)C)C(C)C)C(=O)N[C@@H](C)C(=O)N[C@@H](CC(N)=O)C(=O)N[C@H](C(N)=O)[C@@H](C)O [Peptide 368, H(Aib)HGS(αMePhe)TSDVSK(αMePhe)LDSR(Aib)AQDFVK(O2OC-O2OC-γE-C20diacid)24WIANT-amide] (H-H[Aib]HGS[αMeF]TSDVSK[αMeF]LDSR[Aib]AQDFVK([AEEA-AEEA-γGlu-C20 diacid])WIANT-NH2) |  |  |  |
| 103.5 | 108 pM | 5640 pM | CC[C@H](C)[C@H](NC(=O)[C@H](Cc1c[nH]c2ccccc12)NC(=O)[C@H](CCCCNC(=O)COCCOCCNC(=O)COCCOCCNC(=O)CC[C@H](NC(=O)CCCCCCCCCCCCCCCCCCC(=O)O)C(=O)O)NC(=O)[C@@H](NC(=O)[C@H](Cc1ccccc1)NC(=O)[C@H](CC(=O)O)NC(=O)[C@H](CCC(N)=O)NC(=O)[C@H](C)NC(=O)[C@H](C)NC(=O)[C@H](CCCNC(=N)N)NC(=O)[C@H](CO)NC(=O)[C@H](CC(=O)O)NC(=O)[C@H](CC(C)C)NC(=O)[C@](C)(Cc1ccccc1)NC(=O)[C@H](CCCCN)NC(=O)[C@H](CO)NC(=O)[C@@H](NC(=O)[C@H](CC(=O)O)NC(=O)[C@H](CO)NC(=O)[C@@H](NC(=O)[C@](C)(Cc1ccccc1)NC(=O)[C@H](CO)NC(=O)CNC(=O)[C@@H](NC(=O)C(C)(C)NC(=O)[C@@H](N)Cc1c[nH]cn1)[C@@H](C)CC)[C@@H](C)O)C(C)C)C(C)C)C(=O)N[C@@H](C)C(=O)N[C@@H](CC(N)=O)C(=O)N[C@H](C(N)=O)[C@@H](C)O [Peptide 360] (H-H[Aib]IGS[αMeF]TSDVSK[αMeF]LDSRAAQDFVK([AEEA-AEEA-γGlu-C20 diacid])WIANT-NH2; N-terminus assumed) |  |  |  |
| 1.5 | 54.8 pM | 42.8 pM | CC[C@H](C)[C@H](NC(=O)[C@H](Cc1c[nH]c2ccccc12)NC(=O)[C@H](CCCCNC(=O)COCCOCCNC(=O)COCCOCCNC(=O)CC[C@H](NC(=O)CC[C@H](NC(=O)CCCCCCCCCCCCCCCCC(=O)O)C(=O)O)C(=O)O)NC(=O)[C@@H](NC(=O)[C@H](Cc1ccccc1)NC(=O)[C@H](CC(=O)O)NC(=O)[C@H](CCC(N)=O)NC(=O)[C@H](C)NC(=O)[C@H](C)NC(=O)[C@H](CCCNC(=N)N)NC(=O)[C@H](CO)NC(=O)[C@H](CC(=O)O)NC(=O)[C@H](CC(C)C)NC(=O)[C@](C)(Cc1ccccc1)NC(=O)[C@H](CCCCN)NC(=O)[C@H](CO)NC(=O)[C@@H](NC(=O)[C@H](CC(=O)O)NC(=O)[C@H](CO)NC(=O)[C@@H](NC(=O)[C@](C)(Cc1ccccc1)NC(=O)[C@H](CO)NC(=O)CNC(=O)[C@H](Cc1c[nH]cn1)NC(=O)C(C)(C)NC(=O)[C@@H](N)Cc1c[nH]cn1)[C@@H](C)O)C(C)C)C(C)C)C(=O)N[C@@H](C)C(=O)N[C@@H](CC(N)=O)C(=O)N[C@H](C(N)=O)[C@@H](C)O [Peptide 362] (H-H[Aib]HGS[αMeF]TSDVSK[αMeF]LDSRAAQDFVK([AEEA-AEEA-γGlu-γGlu-C18 diacid])WIANT-NH2; N-terminus assumed) |  |  |  |
| 5.1 | 18.3 pM | 47.5 pM | CC[C@H](C)[C@H](NC(=O)[C@H](Cc1c[nH]c2ccccc12)NC(=O)[C@H](CCCCNC(=O)COCCOCCNC(=O)COCCOCCNC(=O)CC[C@H](NC(=O)CC[C@H](NC(=O)CCCCCCCCCCCCCCCCC(=O)O)C(=O)O)C(=O)O)NC(=O)[C@@H](NC(=O)[C@H](Cc1ccccc1)NC(=O)[C@H](CC(=O)O)NC(=O)[C@H](CCC(N)=O)NC(=O)[C@H](C)NC(=O)[C@H](C)NC(=O)[C@H](CCCNC(=N)N)NC(=O)[C@H](CO)NC(=O)[C@H](CC(=O)O)NC(=O)[C@H](CC(C)C)NC(=O)[C@](C)(Cc1ccccc1)NC(=O)[C@H](CCCCN)NC(=O)[C@H](CO)NC(=O)[C@@H](NC(=O)[C@H](CC(=O)O)NC(=O)[C@H](CO)NC(=O)[C@@H](NC(=O)[C@](C)(Cc1ccccc1)NC(=O)[C@H](CO)NC(=O)CNC(=O)[C@H](Cc1c[nH]cn1)NC(=O)C(C)(C)NC(=O)[C@@H](N)Cc1c[nH]cn1)[C@@H](C)O)C(C)C)C(C)C)C(=O)N[C@@H](C)C(=O)N[C@@H](CC(N)=O)C(=O)N[C@H](C(=O)NCC(N)=O)[C@@H](C)O [Peptide 363] (H-H[Aib]HGS[αMeF]TSDVSK[αMeF]LDSRAAQDFVK([AEEA-AEEA-γGlu-γGlu-C18 diacid])WIANTG-NH2; N-terminus assumed) |  |  |  |
